Literature values as cited in patent US11877998B2, “Supplement composition” (H & H SCIENCE, LLC, priority 2017, dated 2024).

How the values were obtained:
[1] = system: retinol-binding proteins (RBPs); conditions: acne patients, oral, after four weeks
hair growth = conditions: men taking supplements
nonmelanoma skin cancer = conditions: oral, high risk group

Row | Molecule | serum levels of retinol-binding proteins (RBPs) [1] | other results
1 | [Zn] [zinc] | not observed | –
2 | vitamin A [oral vitamin A] | not observed | –
3 | vitamin E | – | hair growth versus placebo (hair growth): grew more hair
4 | O=C(O)c1cccnc1 [oral niacin, niacin] | – | reduction of nonmelanoma skin cancer (nonmelanoma skin cancer): by a quarter
